Test results: patent EP1144402B1, “SUBSTITUTED OXIMES AND HYDRAZONES AS NEUROKININ ANTAGONISTS” (SCHERING CORPORATION, priority 1998, dated 2000)

Legend:
[1] = molecular target: T1, NK2 receptor (Homo sapiens, UniProt P21452); assay: neurokinin receptor binding assay (NK2)
T1 sequence (P21452 1-398): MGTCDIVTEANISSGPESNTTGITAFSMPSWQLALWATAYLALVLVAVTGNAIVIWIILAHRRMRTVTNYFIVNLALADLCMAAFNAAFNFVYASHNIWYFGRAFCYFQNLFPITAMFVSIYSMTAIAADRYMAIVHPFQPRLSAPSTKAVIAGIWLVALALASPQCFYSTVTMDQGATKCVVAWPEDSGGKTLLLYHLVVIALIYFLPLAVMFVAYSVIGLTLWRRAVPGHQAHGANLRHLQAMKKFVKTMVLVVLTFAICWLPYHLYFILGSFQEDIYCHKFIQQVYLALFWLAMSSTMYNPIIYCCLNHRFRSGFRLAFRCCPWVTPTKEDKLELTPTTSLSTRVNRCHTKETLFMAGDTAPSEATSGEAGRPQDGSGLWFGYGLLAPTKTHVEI
From the text: (§1) The in vitro and in vivo activity of the compounds of formula I can be determined by various procedures known in the art, such as a test for their ability to inhibit the activity of the NK1 agonist Substance P, an isolated hamster trachea NK2 assay, a test of the effect of NK1 antagonists on Substance P-induced airway microvascular leakage, measurement of NK2 activity in vivo in guinea pigs, measurement of bronchoconstriction due to NKA, and neurokinin receptor binding assay(s). NK3 activity is determined by following a procedure similar to that described in the literature, e.g., Molecular Pharmacol., 48 (1995), p. 711-716. Typical procedures for determining NK1 and NK2 activity are described in U.S. 5,696,267, incorporated herein by reference.
(§2) % Inhibition of neurokinin agonist activity is the difference between the percent of maximum specific binding (MSB) and 100%. The percent of MSB is defined by the following equation, wherein "dpm" is disintegrations per minute: % MSB =((dpm of unknown) - (dpm of nonspecific binding))/((dpm of total binding) - (dpm of nonspecific binding))X 100 [formula]
Using the test procedures known in the art, the following data (% inhibition or Ki) were obtained for preferred and/or representative compounds of formula I: […]

[2] = molecular target: NK1 receptor (Homo sapiens, UniProt P25103); assay: neurokinin receptor binding assay (NK1)
From the text: as §1, with “711-716.” for “711-716. Typical procedures for determining NK1 and NK2 activity are described in U.S. 5,696,267, incorporated herein by reference.”
as §2

Sequence of NK1 receptor (P25103 whole entry, species assumed): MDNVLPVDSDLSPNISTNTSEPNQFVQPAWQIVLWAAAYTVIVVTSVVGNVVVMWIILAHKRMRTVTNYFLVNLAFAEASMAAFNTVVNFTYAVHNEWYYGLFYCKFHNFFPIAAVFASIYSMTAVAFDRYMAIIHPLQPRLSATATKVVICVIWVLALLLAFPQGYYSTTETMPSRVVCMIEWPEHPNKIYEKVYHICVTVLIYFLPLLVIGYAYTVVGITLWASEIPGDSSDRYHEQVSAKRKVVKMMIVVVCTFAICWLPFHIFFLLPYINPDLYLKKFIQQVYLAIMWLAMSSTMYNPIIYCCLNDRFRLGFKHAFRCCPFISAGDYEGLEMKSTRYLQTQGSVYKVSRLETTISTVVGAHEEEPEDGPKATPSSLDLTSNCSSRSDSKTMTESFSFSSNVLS

Ki [1] [nM] | Ki [2] [nM] | SMILES
0.8 |  | CO/N=C(\CN(C)C(=O)c1cc(Cl)cc(Cl)c1)[C@H](CCN1CCC(N2CCCN(CC(C)(C)O)C2=O)CC1)c1ccc(Cl)c(Cl)c1 [Example 6K]
0.9 | 1 | CO/N=C(\CN(C)C(=O)c1cc(Cl)cc(Cl)c1)[C@H](CCN1CCC(N2CCCN(Cc3nn[nH]n3)C2=O)CC1)c1ccc(Cl)c(Cl)c1 [Example 6S]
1 | 1.2 | CO/N=C(\CN(C)C(=O)c1cc(Cl)cc(Cl)c1)[C@H](CCN1CCC(n2c(=O)[nH]c3ccccc32)CC1)c1ccc(Cl)c(Cl)c1 [Example 18A]
